Source: PubChem BioAssay (NCI)
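Each compound was tested at five concentrations against cells in 96-well plates for 48 hours. GI50 = concentration required for 50% inhibition of growth. TGI: total growth inhibition.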

Legend:
Assay in all cases: NCI-60 cell line screen, 48 h
OVCAR-3 ovarian = tested on: OVCAR-3 ovarian
TK-10 renal = tested on: TK-10 renal
A549 NSCLC = tested on: A549 NSCLC
HT29 colon = tested on: HT29 colon
RPMI-8226 leukemia = tested on: RPMI-8226 leukemia
LOX IMVI melanoma = tested on: LOX IMVI melanoma
CCRF-CEM leukemia = tested on: CCRF-CEM leukemia
MCF7 breast = tested on: MCF7 breast
SF-295 CNS = tested on: SF-295 CNS
OVCAR-5 ovarian = tested on: OVCAR-5 ovarian
CAKI-1 renal = tested on: CAKI-1 renal
SK-MEL-2 melanoma = tested on: SK-MEL-2 melanoma
NCI-H226 lung = tested on: NCI-H226 lung
SN12C renal = tested on: SN12C renal
HOP-62 NSCLC = tested on: HOP-62 NSCLC
U251 CNS = tested on: U251 CNS
NCI-H460 lung = tested on: NCI-H460 lung
NCI-H23 lung = tested on: NCI-H23 lung
MDA-MB-231 breast = tested on: MDA-MB-231 breast
HL-60(TB) leukemia = tested on: HL-60(TB) leukemia
ACHN renal = tested on: ACHN renal
HCC-2998 colon = tested on: HCC-2998 colon
DU-145 prostate = tested on: DU-145 prostate
HCT-116 colon = tested on: HCT-116 colon
UO-31 renal = tested on: UO-31 renal
SK-MEL-28 melanoma = tested on: SK-MEL-28 melanoma
KM12 colon = tested on: KM12 colon
SNB-19 CNS = tested on: SNB-19 CNS
NCI-H522 lung = tested on: NCI-H522 lung
HCT-15 colon = tested on: HCT-15 colon
PC-3 prostate = tested on: PC-3 prostate
COLO 205 colon = tested on: COLO 205 colon
SW-620 colon = tested on: SW-620 colon
OVCAR-8 ovarian = tested on: OVCAR-8 ovarian
UACC-62 melanoma = tested on: UACC-62 melanoma
A498 renal = tested on: A498 renal
K-562 leukemia = tested on: K-562 leukemia
SNB-75 CNS = tested on: SNB-75 CNS
BT-549 breast = tested on: BT-549 breast
UACC-257 melanoma = tested on: UACC-257 melanoma
MDA-MB-435 = tested on: MDA-MB-435
M14 melanoma = tested on: M14 melanoma
HOP-92 NSCLC = tested on: HOP-92 NSCLC
SK-MEL-5 melanoma = tested on: SK-MEL-5 melanoma
HS 578T breast = tested on: HS 578T breast
MOLT-4 leukemia = tested on: MOLT-4 leukemia
SR leukemia = tested on: SR leukemia
SF-268 CNS = tested on: SF-268 CNS
OVCAR-4 ovarian = tested on: OVCAR-4 ovarian
786-0 renal = tested on: 786-0 renal
IGROV1 ovarian = tested on: IGROV1 ovarian
EKVX NSCLC = tested on: EKVX NSCLC
NCI/ADR-RES ovarian = tested on: NCI/ADR-RES ovarian

`COc1ccc(/C=C(/C(=O)N2CCCCC2)c2cc(OC)c(OC)c(OC)c2)cc1` showed a GI50 (OVCAR-3 ovarian) of 0.325 µM, a TGI (OVCAR-3 ovarian) of 1.52 µM and a GI50 (TK-10 renal) of over 100 µM. The TGI (TK-10 renal) was over 100 µM, the GI50 (A549 NSCLC) was 1.5 µM and the TGI (A549 NSCLC) was over 100 µM. The GI50 (HT29 colon) was 0.412 µM, the TGI (HT29 colon) was over 100 µM and the GI50 (RPMI-8226 leukemia) was 4.13 µM. For the same molecule, the TGI (RPMI-8226 leukemia) was over 100 µM, the GI50 (LOX IMVI melanoma) was 1.04 µM and the TGI (LOX IMVI melanoma) was over 100 µM. For the same molecule, the GI50 (CCRF-CEM leukemia) was 1.17 µM, the TGI (CCRF-CEM leukemia) was over 100 µM and the GI50 (MCF7 breast) was 0.454 µM. It also gave a TGI (MCF7 breast) of over 100 µM, a GI50 (SF-295 CNS) of 0.422 µM and a TGI (SF-295 CNS) of over 100 µM. For the same molecule, the GI50 (OVCAR-5 ovarian) was 5.26 µM, the TGI (OVCAR-5 ovarian) was over 100 µM and the GI50 (CAKI-1 renal) was 0.492 µM. It also gave a TGI (CAKI-1 renal) of over 100 µM, a GI50 (SK-MEL-2 melanoma) of 0.967 µM and a TGI (SK-MEL-2 melanoma) of over 100 µM. The GI50 (NCI-H226 lung) was 3.4 µM, the TGI (NCI-H226 lung) was over 100 µM and the GI50 (SN12C renal) was 4.52 µM. It also gave a TGI (SN12C renal) of over 100 µM, a GI50 (HOP-62 NSCLC) of 0.911 µM and a TGI (HOP-62 NSCLC) of over 100 µM. It also gave a GI50 (U251 CNS) of 1.48 µM, a TGI (U251 CNS) of over 100 µM and a GI50 (NCI-H460 lung) of 0.497 µM. It also gave a TGI (NCI-H460 lung) of over 100 µM, a GI50 (NCI-H23 lung) of 3.88 µM and a TGI (NCI-H23 lung) of over 100 µM. The GI50 (MDA-MB-231 breast) was 4.54 µM, the TGI (MDA-MB-231 breast) was over 100 µM and the GI50 (HL-60(TB) leukemia) was 0.441 µM. For the same molecule, the TGI (HL-60(TB) leukemia) was 4.1 µM, the GI50 (ACHN renal) was 0.713 µM and the TGI (ACHN renal) was over 100 µM. It also gave a GI50 (HCC-2998 colon) of 2.82 µM, a TGI (HCC-2998 colon) of over 100 µM and a GI50 (DU-145 prostate) of 1.5 µM. For the same molecule, the TGI (DU-145 prostate) was 17.3 µM, the GI50 (HCT-116 colon) was 0.379 µM and the TGI (HCT-116 colon) was over 100 µM. It also gave a GI50 (UO-31 renal) of 4.76 µM, a TGI (UO-31 renal) of over 100 µM and a GI50 (SK-MEL-28 melanoma) of 8.89 µM. For the same molecule, the TGI (SK-MEL-28 melanoma) was over 100 µM, the GI50 (KM12 colon) was 0.482 µM and the TGI (KM12 colon) was over 100 µM. For the same molecule, the GI50 (SNB-19 CNS) was 0.946 µM, the TGI (SNB-19 CNS) was over 100 µM and the GI50 (NCI-H522 lung) was 1.7 µM. For the same molecule, the TGI (NCI-H522 lung) was over 100 µM, the GI50 (HCT-15 colon) was 0.579 µM and the TGI (HCT-15 colon) was over 100 µM. The GI50 (PC-3 prostate) was 0.527 µM, the TGI (PC-3 prostate) was over 100 µM and the GI50 (COLO 205 colon) was 0.664 µM. The TGI (COLO 205 colon) was 4.9 µM, the GI50 (SW-620 colon) was 0.506 µM and the TGI (SW-620 colon) was over 100 µM. The GI50 (OVCAR-8 ovarian) was 6.12 µM, the TGI (OVCAR-8 ovarian) was over 100 µM and the GI50 (UACC-62 melanoma) was 0.44 µM. For the same molecule, the TGI (UACC-62 melanoma) was over 100 µM, the GI50 (A498 renal) was 0.682 µM and the TGI (A498 renal) was 71.7 µM. The GI50 (K-562 leukemia) was 0.452 µM, the TGI (K-562 leukemia) was over 100 µM and the GI50 (SNB-75 CNS) was 0.483 µM. The TGI (SNB-75 CNS) was over 100 µM, the GI50 (BT-549 breast) was 0.417 µM and the TGI (BT-549 breast) was 29.9 µM. The GI50 (UACC-257 melanoma) was over 100 µM, the TGI (UACC-257 melanoma) was over 100 µM and the GI50 (MDA-MB-435) was 0.257 µM. For the same molecule, the TGI (MDA-MB-435) was 0.935 µM, the GI50 (M14 melanoma) was 0.478 µM and the TGI (M14 melanoma) was over 100 µM. It also gave a GI50 (HOP-92 NSCLC) of 12.4 µM, a TGI (HOP-92 NSCLC) of over 100 µM and a GI50 (SK-MEL-5 melanoma) of 0.753 µM. The TGI (SK-MEL-5 melanoma) was 43.9 µM, the GI50 (HS 578T breast) was 0.966 µM and the TGI (HS 578T breast) was over 100 µM. The GI50 (MOLT-4 leukemia) was 2.06 µM, the TGI (MOLT-4 leukemia) was over 100 µM and the GI50 (SR leukemia) was 0.593 µM. The TGI (SR leukemia) was over 100 µM, the GI50 (SF-268 CNS) was 1.79 µM and the TGI (SF-268 CNS) was over 100 µM. For the same molecule, the GI50 (OVCAR-4 ovarian) was 18 µM, the TGI (OVCAR-4 ovarian) was over 100 µM and the GI50 (786-0 renal) was 0.404 µM. It also gave a TGI (786-0 renal) of over 100 µM, a GI50 (IGROV1 ovarian) of 0.699 µM and a TGI (IGROV1 ovarian) of over 100 µM. It also gave a GI50 (EKVX NSCLC) of 3.4 µM, a TGI (EKVX NSCLC) of over 100 µM and a GI50 (NCI/ADR-RES ovarian) of 1.15 µM. The TGI (NCI/ADR-RES ovarian) was over 100 µM.
